US6589942B1, “Chitosan metal complexes and method for controlling microbial growth on plants using same” (priority 1998, dated 2003)

Key:
Type in all cases: in vivo
cucumber plants [1] = test: toxicity to cucumber plants (Example 5)
Excerpt: Controlling the Gray mold disease caused by Botrytis cinerea in cucumber plants utilizing 0.1% chitosan and metal complexes.

cucumber plants [2] = test: toxicity to cucumber plants (Example 3)
potato leaves = test: toxicity to potato leaves (Example 2)

Measured: toxicity to the plant

O=[N+]([O-])[O-].O=[N+]([O-])[O-].[Cu+2] [CuNO3]
toxic: cucumber plants [1]; 35 ppm metals | cucumber plants [1]; 50 ppm metals | cucumber plants [2]; 25 ppm metals | cucumber plants [2]; 50 ppm metals | cucumber plants [2]; 75 ppm metals | potato leaves; 25 ppm metals | potato leaves; 50 ppm metals | potato leaves; 75 ppm metals
